# Patent EP1762239A1, “Lofexidine for intraspinal administration” (Texcontor Etablissement, priority 2005, dated 2007)
# Several values for one entry are separate records, joined by “and”; a condition that tells them apart may be missing. Equal values may be shown once. Where a name gives a salt, the structure may show the parent alone.
# Tested on: rat model of neuropathic pain
# Assay: Nerve ligation-induced chronic (neuropathic) pain model, mechanical allodynia by electronic von Frey
# Type: in vivo, Wistar rats
# Conditions: for Tactile Pressure (g) Post-Treatment Average / Tactile Pressure (g) Δ Treatment Average: group of 5; for Tactile Pressure (g) Post-Treatment / Tactile Pressure (g) Δ Treatment: individual animal; for Inhibition (%): Δ Treatment/Δ Blank x 100%
# Method: Lofexidine was evaluated for possible analgesic activity in neuropathic pain using a nerve ligation-induced chronic pain model in rats. Lofexidine HCl was administered intrathecally (ITH) at 3.2 and 10 µg/animal and analgesia was measured at 15, 30, 60 and 120 minutes post-dosing using an Electronic Von Frey Aesthesiometer (IITC, USA) with a #12 supertip. A 50 % or greater (≥50%) inhibition relative to blank indicates possible analgesic activity. Lofexidine HCl at doses of 3.2 and 10 µg/animal were administered intrathecally. Sterile Saline (obtained from Sintong Biotech Company, Taiwan) was used as vehicle and dosing volume was 10 µl/animal. Male Wistar rats provided by Biolasco Taiwan (under a Charles River Laboratories Technology Licensee) were used. Space allocation for 6 animals was 45 x 23 x 21 cm. Animals were housed in APEC^R cages and maintained in a controlled temperature (22-23°C) and humidity (60-70%) environment with 12 hours light dark cycles for at least one week in MDS Pharma Services - Taiwan Laboratory prior to use. Free access to standard lab chow for rats (Lab Diet, Rodent Diet, PMI Nutrition International, USA) and tap water was granted. All aspects of this work including housing, experimentation and disposal of animals were performed in general accordance with the Guide for the Care and Use of Laboratory Animals (National Academy Press, Washington, D. C, 1996). Male Wistar rats weighing 160 to 200 g were used. Under pentobarbital (50 mg/kg, 5 ml/kg, i.p.) anesthesia, the sciatic nerve was exposed at mid-thigh level. Three ligatures (4-0 silk suture), about 1 mm apart, were loosely tied around th e nerve. The animals were then housed individually in cages with soft bedding for 7 days before testing for mechanical allodynia. On the test day, rats were placed under inverted plexiglas cages on a wire mesh rack and allowed to acclimatise for 20 to 30 minutes. Allodynia was evaluated by responsiveness to a #12 Supertip® (IITC, USA) applied beneath the mesh floor perpendicular to the central plantar surface of the left hind paw. The tip was gradually applied with sufficient force to cause slight buckling of the filament against the paw. A positive response to the applied tactile pressure, noted by sharp withdrawal of the paw, was recorded automatically by an Electronic Von Frey Aesthesiometer (2290CE Electrovonfrey®, IITC, USA). The endpoint is the withdrawal threshold (gm) to von Frey filament, serving as a measure of analgesic activity. Rats were pre-selected (for presence of allodynia) for experimentation only if the withdrawal threshold 7 days after nerve ligation (pre-treatment) was reduced by 10 grams of force relative to the response of the individual paw before nerve ligation (pre-ligation). Test substance or vehicle was administered intrathecally (3.2 µg and 10 µg/animal) to groups of 5 animals and the level of allodynia was again determined (at 15, 30, 60 and 120 minutes post-treatment). Allodynia is calculated as follows: % Inhibition=Δ Treatment/Δ Blank x 100%; where Δ Treatment is Tactile Pressure [(Post-Treatment) -(Pre-Treatment)] and Δ Blank is Tactile Pressure [(Pre-Ligation) - (Pre-Treatment)]. A 50 percent or greater (≥50%) inhibition relative to blank indicates possible analgesic activity.
# [1] = 3.2 µg/animal ITH, 120 Minutes, listed as Lofexidine HCI
# [2] = 10 µg/animal ITH, 120 Minutes, listed as Lofexidine HCI
compound,measurement,setting,value
CC(Oc1c(Cl)cccc1Cl)C1=NCCN1 (centres unmarked) [Lofexidine HCl],analgesic activity,3.2 µg/animal,low levels of analgesic activity
same,Tactile Pressure (g) Post-Treatment Average,"3.2 µg/animal ITH, 15 Minutes",12.5 g
same,Tactile Pressure (g) Δ Treatment Average,"3.2 µg/animal ITH, 15 Minutes, Δ Blank 30.2",1.3 g
same,Tactile Pressure (g) Post-Treatment,"3.2 µg/animal ITH, 15 Minutes",8.9 g and 5.8 g and 23.3 g and 13.4 g and 10.9 g
same,Tactile Pressure (g) Δ Treatment,"3.2 µg/animal ITH, 15 Minutes",-1.8 g and -5.2 g and 8.5 g and 6.3 g and -1.1 g
same,Inhibition (%),"3.2 µg/animal ITH, 15 Minutes",4%
same,Tactile Pressure (g) Post-Treatment Average,"3.2 µg/animal ITH, 30 Minutes",10.1 g
same,Tactile Pressure (g) Δ Treatment Average,"3.2 µg/animal ITH, 30 Minutes, Δ Blank 30.2",-1.1 g
same,Tactile Pressure (g) Post-Treatment,"3.2 µg/animal ITH, 30 Minutes",7.4 g and 14.2 g and 8.5 g and 10.0 g and 10.2 g
same,Tactile Pressure (g) Δ Treatment,"3.2 µg/animal ITH, 30 Minutes",-3.8 g and -0.6 g and 1.4 g and -2.0 g and -0.5 g
same,Inhibition (%),"3.2 µg/animal ITH, 30 Minutes",-4%
same,Tactile Pressure (g) Post-Treatment Average,"3.2 µg/animal ITH, 60 Minutes",9.3 g
same,Tactile Pressure (g) Δ Treatment Average,"3.2 µg/animal ITH, 60 Minutes, Δ Blank 30.2",-1.8 g
same,Tactile Pressure (g) Post-Treatment,"3.2 µg/animal ITH, 60 Minutes",7.5 g and 12.7 g and 11.3 g and 6.5 g and 8.7 g
same,Tactile Pressure (g) Δ Treatment,"3.2 µg/animal ITH, 60 Minutes",-3.7 g and -2.1 g and 4.2 g and -5.5 g and -2.0 g
same,Inhibition (%),"3.2 µg/animal ITH, 60 Minutes",-6%
same,Tactile Pressure (g) Post-Treatment Average,"3.2 µg/animal ITH, 120 Minutes",9.2 g
same,Tactile Pressure (g) Δ Treatment Average,"3.2 µg/animal ITH, 120 Minutes, Δ Blank 30.2",-2.0 g
same,Tactile Pressure (g) Post-Treatment,[1],6.1 g and 12.4 g and 7.9 g and 10.8 g and 8.6 g
same,Tactile Pressure (g) Δ Treatment,[1],-5.1 g and -2.4 g and 0.8 g and -1.2 g and -2.1 g
same,Inhibition (%),"3.2 µg/animal ITH, 120 Minutes",-7%
same,Tactile Pressure (g) Post-Treatment Average,"10 µg/animal ITH, 15 Minutes",23.3 g
same,Tactile Pressure (g) Δ Treatment Average,"10 µg/animal ITH, 15 Minutes, Δ Blank 27.9",13.0 g
same,Tactile Pressure (g) Post-Treatment,"10 µg/animal ITH, 15 Minutes",>36.8 g and 12.4 g and 17.2 g and 26.7 g and 23.6 g
same,Tactile Pressure (g) Δ Treatment,"10 µg/animal ITH, 15 Minutes",24.7 g and 1.5 g and 11.0 g and 15.7 g and 12.3 g
same,Inhibition (%),"10 µg/animal ITH, 15 Minutes",47%
same,Tactile Pressure (g) Post-Treatment Average,"10 µg/animal ITH, 30 Minutes",26.4 g
same,Tactile Pressure (g) Δ Treatment Average,"10 µg/animal ITH, 30 Minutes, Δ Blank 27.9",16.1 g
same,Tactile Pressure (g) Post-Treatment,"10 µg/animal ITH, 30 Minutes",42.6 g and 7.0 g and >31.5 g and >35.5 g and 15.6 g
same,Tactile Pressure (g) Δ Treatment,"10 µg/animal ITH, 30 Minutes",30.5 g and -3.9 g and 25.3 g and 24.5 g and 4.3 g
same,Inhibition (%),"10 µg/animal ITH, 30 Minutes",58%
same,Tactile Pressure (g) Post-Treatment Average,"10 µg/animal ITH, 60 Minutes",20.8 g
same,Tactile Pressure (g) Δ Treatment Average,"10 µg/animal ITH, 60 Minutes, Δ Blank 27.9",10.5 g
same,Tactile Pressure (g) Post-Treatment,"10 µg/animal ITH, 60 Minutes",20.5 g and 15.1 g and 36.5 g and 23.2 g and 8.9 g
same,Tactile Pressure (g) Δ Treatment,"10 µg/animal ITH, 60 Minutes",8.4 g and 4.2 g and 30.3 g and 12.2 g and -2.4 g
same,Inhibition (%),"10 µg/animal ITH, 60 Minutes",38%
same,Tactile Pressure (g) Post-Treatment Average,"10 µg/animal ITH, 120 Minutes",11.0 g
same,Tactile Pressure (g) Δ Treatment Average,"10 µg/animal ITH, 120 Minutes, Δ Blank 27.9",0.6 g
same,Tactile Pressure (g) Post-Treatment,[2],13.5 g and 10.8 g and 11.8 g and 12.3 g and 6.4 g
same,Tactile Pressure (g) Δ Treatment,[2],1.4 g and -0.1 g and 5.2 g and 1.3 g and -4.9 g
same,Inhibition (%),"10 µg/animal ITH, 120 Minutes",2%
same,"peak of analgesic activity, time post-dosing",10 µg/animal intrathecal,30 min
same,analgesic activity,"10 µg/animal intrathecal, 30 minutes post-injection",significant analgesic activity
same,analgesic activity,"10 µg/animal intrathecal, 120 minutes post-dosing",no longer evident
